In US20240058464A1 (Fortis Therapeutics, Inc., priority 2021, published 2024):

What was measured:
[1] = system: CD46 expression; assay: CD46 expression by RNA-sequencing in unpaired pre-treatment and post-treatment tumor biopsies; format: in vivo, human; conditions: for CD46 expression diff: Post minus Pre, unpaired biopsies, log2-transformed counts; for CD46 expression Percentage change: post- vs pre-treatment unpaired biopsies; for CD46 expression Post: post-treatment biopsies, unpaired, RNA-seq log2-transformed normalized counts
[2] = system: CD46 expression; assay: CD46 expression by RNA-sequencing in paired tumor biopsies before and after therapy; conditions: for CD46 expression diff (post minus pre) / Percent Change in CD46 expression / CD46 expression, Post-Treatment Biopsy / CD46 expression, Pre-Treatment Biopsy: paired biopsies; for CD46 expression, Post-Treatment Biopsy / CD46 expression, Pre-Treatment Biopsy: RNA-seq log2-transformed counts;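 on all read-outs here: FFPE human tumor biopsies, exome-capture RNA-seq, reads aligned to GRCh37, counts normalized for GC content, length and depth, summed per gene, log2-transformed, samples paired before versus after therapy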
Description: Gene expression was determined by RNA-sequencing from formalin-fixed, paraffin-embedded (FFPE) tumor samples using an exome capture-based protocol. Briefly, total nucleic acid was extracted from FFPE solid tumor samples. The RNA sample was treated with DNAse and reverse transcribed. cDNA was captured with a custom probe set targeting the human exome. A library was prepared from the captured cDNA and sequenced on the Illumina platform. Sequence read were aligned to GRCh37 using Kallisto and normalized to quantify gene expression. Specifically, transcript counts were corrected for GC content and length using quantile normalization and adjusted for sequencing depth via a size factor method. Normalized counts in protein coding transcripts covered by the exome panel were then summed to obtain gene-level counts. Subsequent expression analyses were performed on log2-transformed counts.

[3] = Clear Cell Renal Cell Carcinoma
[4] = Head and Neck Squamous Cell Carcinoma

CC/C(=C(\c1ccccc1)c1ccc(OCCN(C)C)cc1)c1ccccc1 [tamoxifen]
CD46 expression diff ([1]; Breast Cancer): 0.11
CD46 expression Percentage change ([1]; Breast Cancer): 1.8%
CD46 expression Post ([1]; Breast Cancer): 6.38
CD46 expression diff (post minus pre) ([2]; Breast Cancer): 0.11
Percent Change in CD46 expression ([2]; Breast Cancer): 1.7%
CD46 expression, Post-Treatment Biopsy ([2]; Breast Cancer): 6.32

ipilimumab
CD46 expression diff [1, 3]: −0.08
CD46 expression Percentage change [1, 3]: −1.4%
CD46 expression Post [1, 3]: 5.48
CD46 expression diff ([1]; Melanoma): −0.06
CD46 expression Percentage change ([1]; Melanoma): −1.1%
CD46 expression Post ([1]; Melanoma): 5.30
CD46 expression diff (post minus pre) ([2]; Melanoma): −0.06
Percent Change in CD46 expression ([2]; Melanoma): −1.1%
CD46 expression, Post-Treatment Biopsy ([2]; Melanoma): 5.26
CD46 expression, Pre-Treatment Biopsy ([2]; Melanoma): 5.31

pembrolizumab
CD46 expression diff ([1]; Bladder Cancer): 0.06
CD46 expression Percentage change ([1]; Bladder Cancer): 0.9%
CD46 expression Post ([1]; Bladder Cancer): 6.18
CD46 expression diff ([1]; Breast Cancer): −0.13
CD46 expression Percentage change ([1]; Breast Cancer): −2.2%
CD46 expression Post ([1]; Breast Cancer): 5.95
CD46 expression diff ([1]; Colorectal Cancer): 0.30
CD46 expression Percentage change ([1]; Colorectal Cancer): 4.8%
CD46 expression Post ([1]; Colorectal Cancer): 6.50
CD46 expression diff ([1]; Esophageal Cancer): 0.09
CD46 expression Percentage change ([1]; Esophageal Cancer): 1.4%
CD46 expression Post ([1]; Esophageal Cancer): 6.01
CD46 expression diff [1, 4]: 0.17
CD46 expression Percentage change [1, 4]: 3.1%
CD46 expression Post [1, 4]: 5.76
CD46 expression diff ([1]; Melanoma): 0.00
CD46 expression Percentage change ([1]; Melanoma): 0.0%
CD46 expression Post ([1]; Melanoma): 5.30
CD46 expression diff ([1]; Non-Small Cell Lung Cancer): −0.05
CD46 expression Percentage change ([1]; Non-Small Cell Lung Cancer): −0.7%
CD46 expression diff (post minus pre) ([2]; Breast Cancer): −0.11
Percent Change in CD46 expression ([2]; Breast Cancer): −1.7%
CD46 expression, Pre-Treatment Biopsy ([2]; Breast Cancer): 6.28
CD46 expression diff (post minus pre) ([2]; Melanoma): 0.03
Percent Change in CD46 expression ([2]; Melanoma): 0.6%
CD46 expression, Post-Treatment Biopsy ([2]; Melanoma): 5.25
CD46 expression, Pre-Treatment Biopsy ([2]; Melanoma): 5.22
CD46 expression diff (post minus pre) ([2]; Non-Small Cell Lung Cancer): −0.24
Percent Change in CD46 expression ([2]; Non-Small Cell Lung Cancer): −3.8%
CD46 expression, Post-Treatment Biopsy ([2]; Non-Small Cell Lung Cancer): 6.00
CD46 expression, Pre-Treatment Biopsy ([2]; Non-Small Cell Lung Cancer): 6.23

C[C@]12CC[C@H](O)CC1=CC[C@@H]1[C@@H]2CC[C@]2(C)C(c3cccnc3)=CC[C@@H]12 [abiraterone]
CD46 expression diff ([1]; Prostate Cancer): −0.07
CD46 expression Percentage change ([1]; Prostate Cancer): −1.1%
CD46 expression Post ([1]; Prostate Cancer): 6.10
CD46 expression diff (post minus pre) ([2]; Prostate Cancer): 0.29
Percent Change in CD46 expression ([2]; Prostate Cancer): 5.1%

O=P1(NCCCl)OCCCN1CCCl (centres unmarked) [ifosfamide]
CD46 expression diff ([1]; Sarcoma): 0.17
CD46 expression Percentage change ([1]; Sarcoma): 3.4%
CD46 expression Post ([1]; Sarcoma): 5.07
CD46 expression diff (post minus pre) ([2]; Sarcoma): 0.32
Percent Change in CD46 expression ([2]; Sarcoma): 6.7%
CD46 expression, Post-Treatment Biopsy ([2]; Sarcoma): 5.08

O=C(c1cc(Cc2n[nH]c(=O)c3ccccc23)ccc1F)N1CCN(C(=O)C2CC2)CC1 [olaparib]
CD46 expression diff ([1]; Breast Cancer): 0.04
CD46 expression Percentage change ([1]; Breast Cancer): 0.6%
CD46 expression Post ([1]; Breast Cancer): 6.15
CD46 expression diff ([1]; Ovarian Cancer): −0.02
CD46 expression Percentage change ([1]; Ovarian Cancer): −0.3%
CD46 expression Post ([1]; Ovarian Cancer): 5.70
CD46 expression diff (post minus pre) ([2]; Ovarian Cancer): −0.14
Percent Change in CD46 expression ([2]; Ovarian Cancer): −2.5%
CD46 expression, Post-Treatment Biopsy ([2]; Ovarian Cancer): 5.51

CC(C)(C#N)c1cc(Cn2cncn2)cc(C(C)(C)C#N)c1 [anastrozole]
CD46 expression diff ([1]; Breast Cancer): 0.06
CD46 expression Percentage change ([1]; Breast Cancer): 0.9%
CD46 expression Post ([1]; Breast Cancer): 6.41
CD46 expression diff (post minus pre) ([2]; Breast Cancer): 0.41
Percent Change in CD46 expression ([2]; Breast Cancer): 6.7%
CD46 expression, Post-Treatment Biopsy ([2]; Breast Cancer): 6.49
subjects whose paired biopsies showed increased CD46 expression ([2]; breast cancer, 15 of 19 subjects, FIG. 3): 79%
